Format in all cases: cell-based
One test concerns Filaggrin. Briefly: Western blotting of keratinocyte differentiation marker filaggrin in UVB-irradiated keratinocytes. The settings on record: human keratinocytes, coumestrol 1 μM, 5 μM, 10 μM, FIG. 3. On the procedure:
(§1) Human keratinocytes (normal human epidermal keratinocytes, NHEK) were cultured in a 6-well plate incubator. Specifically, the normal human epidermal keratinocytes were cultured by replacing it with phosphate-buffered saline (PBS) after 24 hours to irradiate UVB (25 mJ/cm^2) and then, adding cortisone (10 μM) to NHEK culture media having no hydrocortisone. Subsequently, the cell culture solution was collected to measure a cortisol concentration in an ELISA method, and the results are shown in FIG. 1.
(§2) In addition, after separating proteins from the human keratinocytes using a RIPA lysis buffer, protein expression of keratinocyte differentiation markers (KRT1, Filaggrin) was confirmed through western blotting, and the results are shown in FIGS. 2 and 3. Referring to FIGS. 2 and 3, in the wells containing the coumestrol (1 μM, 5 μM, 10 μM), gene expression of the keratinocyte differentiation markers (KRT1, Filaggrin) inhibited by the ultraviolet (UVB) rays was increased in the keratinocytes. In other words, the gene expression of the keratinocyte differentiation markers inhibited by the ultraviolet (UVB) rays in the keratinocytes was restored by the coumestrol, and accordingly, the coumestrol inhibited activity of the cortisone reductase and reduced the cortisol concentration, eventually restoring the gene expression of the keratinocyte differentiation markers.

A further test deals with keratin 1 (KRT1). Briefly: Western blotting of keratinocyte differentiation marker KRT1 in UVB-irradiated keratinocytes. The settings on record: human keratinocytes, coumestrol 1 μM, 5 μM, 10 μM, FIG. 2. On the procedure: as §1, §2
The target in test [1] is T1, 11β-hydroxysteroid dehydrogenase type 1 (Homo sapiens, UniProt P28845).
T1 construct: endogenous in cells; host or cells: normal human epidermal keratinocytes (NHEK)
Briefly: Cortisol concentration in cell culture solution of UVB-irradiated, cortisone-treated keratinocytes (ELISA). The note with it: coumestrol 1 μM, 5 μM. As to the method: as §1
(In general: In an ELISA, binding on a coated surface is turned into a signal by an enzyme label.)

T1 sequence (P28845 whole entry): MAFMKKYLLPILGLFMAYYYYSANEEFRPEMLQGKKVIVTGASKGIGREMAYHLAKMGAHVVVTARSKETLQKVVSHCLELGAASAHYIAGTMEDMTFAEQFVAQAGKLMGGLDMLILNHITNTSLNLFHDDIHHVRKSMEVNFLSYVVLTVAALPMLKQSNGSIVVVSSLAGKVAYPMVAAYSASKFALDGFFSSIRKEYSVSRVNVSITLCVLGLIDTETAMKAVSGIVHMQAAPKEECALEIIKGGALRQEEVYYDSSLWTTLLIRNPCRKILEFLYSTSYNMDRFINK

With `O=c1oc2cc(O)ccc2c2oc3cc(O)ccc3c12` [coumestrol], the “expression of keratinocyte differentiation marker Filaggrin inhibited by UVB” value in the test on Filaggrin is on record as “increased”. Further, the “expression of keratinocyte differentiation marker KRT1 inhibited by UVB” value in the test on keratin 1 (KRT1) was “increased”. Further, the “cortisol concentration in cell culture solution” value in test [1] (NHEK, UVB 25 mJ/cm^2, cortisone 10 μM, compared with control before UV irradiation, FIG. 1) was “not significantly increased”. Moreover, the “activity of 11β-hydroxysteroid dehydrogenase type 1 (cortisone reductase)” value in test [1] (conclusion from cortisol ELISA in NHEK, 10 μM) is on record as “inhibit activity”.
